Data: patent publication US5352667A, “Non-peptidic surrogates of the Arg-Gly-Asp sequence and pharmaceutical compositions comprising them” (priority 1991, dated 1994)

Tested on: CD4^+ T cell adhesion to FN
Test: Inhibition of activated CD4+ T cell adhesion to FN
Format: cell-based, human
Experimental: To examine the adhesive properties of the T cells, 1 μg/50 μl/well of either fibronectin (FN) (Sigma), the 120 kD cell attachment fragment of FN (Telios Pharm. Inc. San Diego, CA), or laminin (LN) (Sigma), were added to 96-flat bottom microtiter-wells for 12 h. Unbound proteins were then washed away and remaining binding sites were blocked with 0.1% bovine serum albumin (BSA) added to the wells for 2 h and washed. CD4+T cells were purified from peripheral blood mononuclear leukocytes obtained from healthy human donors. The mononuclear cells were isolated using a Ficoll gradient, washed and incubated in RPMI supplemented with 10% fetal calf serum (FCS) and antibiotics in petri dishes at 37° C. humidified CO2 incubator. After 2 h, the non-adherent cells were isolated and applied on nylon-wool columns (1.5 h). CD4^+ T cells were then negatively selected by exposure of the cells to a cocktail of anti-CD8, CD19, and CD14 monoclonal antibodies (mAb) conjugated to magnetic-beads (Advanced Magnetics, MA). Unbound cells were recovered and their phenotype was examined. Purity of the CD4^+ T cells was always greater than 92% as determined by FACScan.
The purified CD4^+ T cells were radioactively labeled with ^51 [Cr](New England Nuclear) in RPMI +20% FCS for 2 h and washed. The cells were counted and seeded (0.2×10^5 cells) on the precoated microtiter wells in the presence or the absence of the various inhibitors. Coating was made either with FN, the 120 kD cell-attachment fragment of FN or with control adhesive protein laminin (LN). The inhibitors were various surrogates according to the invention, other test molecules or mAb. After 30 min incubation (in […] CO2 -- humidified incubator) the T cells were activated by 10 ng/ml phorbol myristate acetate (PMA) and the percent of T cells attached to the protein substrates was measured. Unbound cells were washed away after 20-30 min, the bound cells were lysed and their radioactivity was measured using radioactive counter. The amount of the radioactivity of the cell lysates represent the matrix-adherent cells and percent binding was calculated in comparison to the total radioactivity added to the wells. Activated T cell adhesion to control wells or to wells coated with BSA was always 2-5%; the level of adhesion of the non-activated T cells was always below 5%. Where indicated, 1/200 diluted mAb anti-CD29 (anti-β1 mAb Serotec, GB), or 1/400 diluted anti-VLA5 (the β1α5 FN-integrin receptor) mAb (Telios Pharm. Inc. San Diego), or 0.2 mM of RGD, GRGDSPK or GRGESP peptides (Sigma) were used. […] The results shown in Tables 1A, 1B and 1C represent data obtained from several experiments that produced essentially similar results.
In a second series of experiments, FN was used in the adhesion assay carried out with the RGD surrogates NS-8, NS-11 and NS-15 in comparison to RGDS peptide.
In a third series of experiments, FN was used in the adhesion assay with the surrogates SF-6,5 and NS-11 and compared to the peptide GRGDSP.

N=C(N)NCCCCCC(=O)NCCCCC(=O)O [SF-6,5, 6-aza-7-oxo-12-quanidino-dodecanoic acid] was tested, and the “% Adhesion of activated CD4^+ T cell to FN: (% inhibition)” value (shortened to “% Adhesion … (% inhibition)”) (Conc. 25 μg. ml) was 10%, the “% Adhesion … (% inhibition)” value (Conc. 50 μg. ml) was 25% and the “% Adhesion … (% inhibition)” value (Conc. 100 μg. ml) was 38%. For the same molecule, the “% Adhesion … (% inhibition)” value (Conc. 200 μg. ml) was 55%.
